This assay deals with Human immunodeficiency virus type 1 protease (Human immunodeficiency virus 1, UniProt Q72874). Description: Inhibitory activity towards HIV-1 protease.
As for `CCNC(=O)[C@@H]1N[C@@H]([C@H](NC(=O)Cc2ccccc2)C(=O)OC)SC1(C)C`, the half-maximal inhibitory concentration (IC50) is > 63 µM. As to `COC(=O)[C@@H](NC(=O)Cc1ccccc1)[C@@H]1N[C@@H](C(=O)NCCNC(C)=O)C(C)(C)S1`, the half-inhibitory concentration (IC50) is > 55 µM. Next, `COC(=O)[C@@H](NC(=O)Cc1ccccc1)[C@@H]1N[C@@H](C(=O)NNC(=O)[C@@H]2N[C@@H]([C@H](NC(=O)Cc3ccccc3)C(=O)OC)SC2(C)C)C(C)(C)S1`: 6.8 µM. As to `CCNC(=O)[C@@H](NC(=O)Cc1ccccc1)[C@@H]1N[C@@H](C(=O)OCCOC(=O)[C@@H]2N[C@@H]([C@H](NC(=O)Cc3ccccc3)C(=O)NCC)SC2(C)C)C(C)(C)S1`, the IC50 is > 12 µM. Regarding `COC(=O)[C@@H](NC(=O)Cc1ccccc1)[C@@H]1N[C@@H](C(=O)NCCNC(=O)[C@@H]2N3C(=O)C(NC(=O)Cc4ccccc4)[C@H]3SC2(C)C)C(C)(C)S1` (stereo partly specified), half-maximal inhibition (IC50) required 0.5 µM. In the case of `COC(=O)[C@@H](NC(=O)Cc1ccccc1)[C@@H]1N[C@@H](C(=O)NCCCNC(=O)[C@@H]2N[C@@H]([C@H](NC(=O)Cc3ccccc3)C(=O)OC)SC2(C)C)C(C)(C)S1`, the IC50 is > 12 µM. As to `CC1(C)S[C@H]([C@H](NC(=O)Cc2ccccc2)C(=O)NCc2ccccc2)N[C@H]1C(=O)NCCNC(=O)[C@@H]1N[C@@H]([C@H](NC(=O)Cc2ccccc2)C(=O)NCc2ccccc2)SC1(C)C`, the midpoint of inhibition, the IC50, lay at 0.0009 µM. Compound `CCNC(=O)[C@@H](NC(=O)Cc1ccccc1)[C@@H]1N[C@@H](C(=O)NCCNC(=O)[C@@H]2N[C@@H]([C@H](NC(=O)Cc3ccccc3)C(=O)NCC)SC2(C)C)C(C)(C)S1` gave a concentration for half-maximal inhibition (IC50) of 0.0048 µM. `CC1(C)S[C@H]([C@H](NC(=O)Cc2ccccc2)C(N)=O)N[C@H]1C(=O)NCCNC(=O)[C@@H]1N[C@@H]([C@H](NC(=O)Cc2ccccc2)C(N)=O)SC1(C)C` registered a half-maximal inhibitory concentration (IC50) of 0.003 µM.

`COC(=O)[C@@H](NC(=O)Cc1ccccc1)[C@@H]1N[C@@H](C(=O)NCCNC(=O)[C@@H]2N[C@@H]([C@H](NC(=O)Cc3ccccc3)C(=O)OC)SC2(C)C)C(C)(C)S1`: half-maximal inhibition (IC50) required 0.06 µM.

Take `CC1(C)S[C@@H]2[C@H](NC(=O)Cc3ccccc3)C(=O)N2[C@H]1C(=O)NCCNC(=O)[C@@H]1N2C(=O)[C@@H](NC(=O)Cc3ccccc3)[C@H]2SC1(C)C`: the IC50 is > 70 µM.

The values above are taken from ChEMBL document CHEMBL1125526, “Penicillin derived C2-symmetric dimers as novel inhibitors of HIV-1 proteinase” (J Med Chem, 1992).
